Laboratory results reported in patent US5141962A, “Amine compounds” (Roussel Uclaf, priority 1989, dated 1992).

How the values were obtained:
[1] = system: male rats; test: Antagonist effect vis-a-vis the diuretic activity of U-50488, action on diuresis; assay type: in vivo, rat; details: male rats fasted 16 h; product of Example 1 20 mg/kg SC, U-50488 5 mg/kg, combination 5 + 20 mg/kg; urine collected for one hour
[2] = system: female mice; test: Antagonist effect vis-a-vis the analgesic activity of U-50488, hot plate test with mice; assay type: in vivo, mouse; details: hot plate 56° C., product of Example 1 20 mg/kg SC, U-50488 5 mg/kg SC, combination 5 + 20
[3] = molecular target: T1, kappa opiate receptor (Cavia porcellus, UniProt P41144); test: Test of the bonding to the kappa opiate receptor in vitro (3H ethylketocyclazocine); assay type: binding, guinea pig
T1 construct: Membrane samples prepared from the cerebellum of guinea pigs; from tissue; host or cells: guinea pig cerebellum membranes
T1 sequence (P41144 whole entry): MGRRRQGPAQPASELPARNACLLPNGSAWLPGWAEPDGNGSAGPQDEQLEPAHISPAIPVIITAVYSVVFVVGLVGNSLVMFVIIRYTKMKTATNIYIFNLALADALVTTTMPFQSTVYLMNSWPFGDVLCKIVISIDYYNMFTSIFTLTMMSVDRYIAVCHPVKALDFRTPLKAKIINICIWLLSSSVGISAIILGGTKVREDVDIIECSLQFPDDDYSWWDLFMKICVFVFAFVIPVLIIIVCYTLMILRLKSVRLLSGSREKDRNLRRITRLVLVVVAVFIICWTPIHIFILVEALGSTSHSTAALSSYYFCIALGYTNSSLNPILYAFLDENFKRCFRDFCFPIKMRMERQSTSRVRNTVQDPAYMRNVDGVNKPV
Description: a) Test of the bonding to the kappa opiate receptor in vitro
Membrane samples prepared from the cerebellum of guinea pigs preserved at -30° C. (optionally for about 30 days) were used.
These samples were suspended in pH 7.7 Tris buffer. Fractions of 2 ml were allocated into hemolysis tubes and 1 nM of 3H ethylketocyclazocine and the product to be studied were added. The product was first tested in triplicate at 5×10^-6 M. When the tested product displaced more than 50% of the radioactivity bonded specifically to the receptor, it was tested again according to a range of 7 doses to determine the dose which inhibited 50% of the radioactivity bonded specifically to the receptor. Thus, the 50% inhibiting concentration was determined.
The non-specific bonding was determined by the addition of product known under the name U-50 488 H (Lahti et al. 1982, Life Sci. Vol. 31, p. 2257) at 10^-5 M in triplicate. Incubation took place at 25° C. for 40 minutes, followed by returning to the water bath at 0° C. for 5 minutes, then vacuum filtering, rinsing with pH 7.7 Tris buffer, and the radioactivity was counted in the presence of a Triton scintillator. The result was expressed directly as the 50% inhibiting concentration (IC50), that is to say as the concentration of studied product, expressed in nM, necessary to displace 50% of the radioactivity specifically bonded to the studied receptor.

[4] = molecular target: T2, mu opiate receptor (Rattus norvegicus, UniProt P33535); test: Test of bonding to the mu opiate receptor in vitro (3H DAGO); assay type: binding; details: rat brain membranes, 1 nM 3H DAGO, 25° C. 40 minutes, pH 7.7 Tris buffer; read-out: IC50, displacement of 3H DAGO from mu opiate receptor
T2 construct: from the brains of rats were used; from tissue; host or cells: rat brain membranes
T2 sequence (P33535 whole entry): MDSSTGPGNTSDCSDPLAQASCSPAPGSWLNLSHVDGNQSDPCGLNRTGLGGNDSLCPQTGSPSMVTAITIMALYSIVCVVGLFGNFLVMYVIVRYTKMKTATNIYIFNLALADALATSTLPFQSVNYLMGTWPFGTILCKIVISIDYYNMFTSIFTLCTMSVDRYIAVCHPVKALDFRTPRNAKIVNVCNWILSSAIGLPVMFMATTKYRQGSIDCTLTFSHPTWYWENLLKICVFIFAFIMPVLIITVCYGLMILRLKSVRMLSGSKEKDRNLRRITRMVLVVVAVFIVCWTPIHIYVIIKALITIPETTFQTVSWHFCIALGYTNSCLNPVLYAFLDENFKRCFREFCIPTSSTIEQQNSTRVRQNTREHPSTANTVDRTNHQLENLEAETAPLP

[5] = molecular target: T3, dopamine receptor (Rattus norvegicus, UniProt P61169); test: Test of bonding to the dopamine receptor in vitro (3H spiroperidol); assay type: binding; details: rat striated bodies membranes, 0.15 nM 3H spiroperidol, pH 7.25 Krebs Tris buffer; read-out: IC50, displacement of 3H spiroperidol from dopamine receptor
T3 construct: prepared from the striated bodies of rats were used; from tissue; host or cells: rat striatum membranes
T3 sequence (P61169 whole entry): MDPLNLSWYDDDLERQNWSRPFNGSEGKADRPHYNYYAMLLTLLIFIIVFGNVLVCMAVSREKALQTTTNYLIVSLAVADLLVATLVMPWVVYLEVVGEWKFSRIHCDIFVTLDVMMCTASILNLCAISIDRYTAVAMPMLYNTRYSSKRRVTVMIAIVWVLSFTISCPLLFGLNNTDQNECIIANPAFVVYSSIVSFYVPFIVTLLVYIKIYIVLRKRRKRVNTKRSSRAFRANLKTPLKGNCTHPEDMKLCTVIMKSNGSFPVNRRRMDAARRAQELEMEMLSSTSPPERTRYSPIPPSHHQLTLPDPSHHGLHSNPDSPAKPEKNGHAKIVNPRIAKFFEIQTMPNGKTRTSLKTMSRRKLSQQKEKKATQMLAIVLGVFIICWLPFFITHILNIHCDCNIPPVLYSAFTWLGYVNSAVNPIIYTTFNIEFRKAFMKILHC
Description: (optionally for about 30 days) and prepared from the striated bodies of rats were used. The samples were suspended in pH 7.25 Krebs Tris buffer. […] The product was first tested at 5×10^-6 M, in triplicate. […] Incubation took place at 27° C. for 20 minutes, followed by returning to the water bath at 0° C. for 5 minutes, then vacuum filtering, rinsing with pH 7.7 Tris buffer, and the radioactivity was counted in the presence of a Triton scintillator.

[6] = molecular target: T1, kappa opiate receptor; test: Test for distinction between agonist and antagonist on the kappa opiate receptor (3H diprenorphine, with or without NaCl and GTP); assay type: binding, guinea pig; details: for IC50: guinea pig cerebellum membranes, 0.3 nM 3H diprenorphine

Which “Volume of urine excreted in 1 hour, m ± esm” value [1] does the source give for `CCCCCN(CCc1ccccc1)CCc1cccc(O)c1` [Product of example 1, N-pentyl-N-phenethyl-3-hydroxyphenethylamine] here?
The value was 0.0067 ± 0.0002 L/kg.

What about the “Reaction time, m ± esm, 30 mn” value ([2]; 30 minutes after injection) of the same compound?
The value was 4.7 ± 0.6 s.

And the “Reaction time, m ± esm, 0 mn” value ([2]; initial time (0 mn))?
The value was 5.1 ± 0.1 s.

And the “Affinity for kappa, mu and dopamine receptors (conclusion)” value ([3]; conclusion from the kappa, mu and dopamine bonding tests)?
The value was “only has an affinity for the kappa opiate receptor”.

What about the IC50 ([3]; guinea pig cerebellum membranes, 1 nM 3H ethylketocyclazocine, 25° C. 40 minutes, pH 7.7 Tris buffer, read-out: IC50, displacement of 3H ethylketocyclazocine from kappa opiate receptor) of the same compound?
Its IC50 is 57 nM.

And the IC50 [4]?
Its IC50 is 840 nM.

And the IC50 [5]?
Its IC50 is 10600 nM.

And the “Agonist or antagonist character on the kappa receptor” value ([6]; conclusion from IC50 with and without NaCl/GTP)?
The value was “antagonist product of the kappa receptor”.

What about the IC50 ([6]; NaCl 100 mM, GTP 50 uM, read-out: IC50 in the presence of GTP and NaCl) of the same compound?
Its IC50 is 135 nM.

And the IC50 ([6]; without NaCl and GTP, read-out: IC50 in the absence of GTP and NaCl)?
The IC50 was 43 nM.
